Patent US6034065A, “Elucidation and synthesis of antineoplastic tetrapeptide phenethylamides of dolastatin 10” (Arizona Board of Regents, priority 1992, dated 2000)

Assays:
Format in all cases: cell-based
human cancer cell line = experiment: Human cancer cell line activity compared to dolastatin 10
A498 = experiment: NCI human cancer cell line test, Renal A498
From the text: (§1) Only two hundred years ago, many diseases ravaged humankind. Many of these diseases have been controlled or eradicated. In the development of the means to treat or control these diseases, work with the appropriate common experimental animals was of critical importance. With the various types of cancers, and with the HIV virus, such work is presently ongoing. The research for the treatment of various types of cancer is coordinated by the National Cancer Institute (NCI).NCI, as a government entity, has been charged with assisting anti-cancer research. To establish whether a substance has anti cancer activity, NCI has established a protocol. This protocol, which involves testing a substance against a cell line panel containing 60 human tumor cell lines, has been verified, and is accepted in scientific circles. This protocol, and the established statistical means of evaluating the results obtained therefrom have been amply described in the literature. See e.g. Principles & Practice of Oncology PPO Updates, Volume 3, Number 10, October 1989, by Michael R. Boyd, M.D., Ph.D., for a description of the protocol. The statistical analysis is explained in "Display and Analysis of Patterns of Differential Activity of Drugs Against Human Tumor Cell Lines: Development of Mean Graph and COMPARE Algorithm" Journal of the National Cancer Institute Reports Vol. 81, No. 14, Pg. 1088, Jul. 14, 1989, by K. D. Paull et al. Both articles are incorporated herein by this reference as if fully set forth.
(§2) The structural modifications of dolastatin 10 whose design and synthesis are described herein were evaluated for antineoplastic activity. This evaluation was conducted using the standard protocols established by National Cancer Institute (NCI) as described above. These protocols do evaluate whether the substances in question have antineoplastic activity against certain human cancer cell lines derived from human cancer patients. Substantial activity was found in those compounds tested. The antineoplastic activity of the compounds is reported below in Table 1. The results of the 60 cell line NCI in vitro testing of compound 6b conducted Jun. 22, 1992, is reported below in Table 2.

SF-295 = experiment: NCI human cancer cell line test, CNS SF-295
From the text: as §1, §2

KM20L2 = experiment: NCI human cancer cell line test, Colon KM20L2
From the text: as §1, §2

SK-MEL-3 = experiment: NCI human cancer cell line test, Melanoma SK-MEL-3
From the text: as §1, §2

P-388 = experiment: Mouse leukemia cell P-388 growth inhibition
Experimental: as §2

NCI-460 = experiment: NCI human cancer cell line test, Lung-NSC NCI-460
From the text: as §1, §2

OVCAR-3 = experiment: NCI human cancer cell line test, Ovarian OVCAR-3
From the text: as §1, §2

Substance	human cancer cell line activity as compared to dolastatin 10 (human cancer cell line)	GI-50 (A498) [µg/mL]	LC-50 (A498) [µg/mL]	TGI (A498) [ng/mL]	GI-50 (SF-295) [µg/mL]	LC-50 (SF-295) [µg/mL]	TGI (SF-295) [ng/mL]	GI-50 (KM20L2) [µg/mL]	LC-50 (KM20L2) [µg/mL]	TGI (KM20L2) [ng/mL]	GI-50 (SK-MEL-3) [µg/mL]	LC-50 (SK-MEL-3) [µg/mL]	TGI (SK-MEL-3) [ng/mL]	ED-50 (P-388) [mg/mL]	GI-50 (NCI-460) [µg/mL]	LC-50 (NCI-460) [µg/mL]	TGI (NCI-460) [ng/mL]	GI-50 (OVCAR-3) [µg/mL]	LC-50 (OVCAR-3) [µg/mL]	TGI (OVCAR-3) [ng/mL]
R-Doe-isodolastatin 10	did not show any significant difference																			
[2S-[1[1R*(R*),2S*],2R*[1S*,2S*]]]-N,N-dimethyl-L-valyl-N-[2-methoxy-4-[2- [1-methoxy-2-methyl-3-oxo-3-[[2-phenyl-ethyl]amino]propyl]-1-pyrrolidinyl-1-(methylpropyl)-4-oxobutyl]-N-methyl-L-valineamide [Compound 6b]		0.000013	< 0.0001	< 0.1	0.000014	< 0.0001	0.042	0.000005	< 0.0001	< 0.1	0.000012	< 0.0001	< 0.1	0.0005	0.000005	< 0.0001	< 0.1	0.000004	< 0.0001	0.027
[2S-[1[1R*(R*),2S*],2R*[1S*,2S*]]]-N,N-dimethyl-L-valyl-N-[2-methoxy-4-[2- [1-methoxy-2-methyl-3-oxo-3-[[3-phenyl-propyl]amino]propyl]-1-pyrrolidinyl- 1-(methylpropyl)-4-oxobutyl]-N-methyl-L-valineamide [Compound 6c]		0.00039	< 0.01	< 10	0.00028	< 0.01	0.79	0.00033	< 0.01	< 10	0.00031	< 0.01	< 10	0.00044	0.00031	< 0.01	< 10	0.00018	< 0.01	0.54
[2S-[1[1R*(R*),2S*],2R*[1S*,2S*]]]-N,N-dimethyl-L-valyl-N-[2-methoxy-4-[2- [1-methoxy-2-methyl-3-oxo-3-benzylamino-propyl]-1-pyrrolidinyl-1-(methylpropyl)-4-oxobutyl]-N-methyl-L-valineamide [Compound 6a]		< 0.0001	< 0.0001	< 0.1	< 0.0001	< 0.0001	< 0.1	< 0.0001	< 0.0001	< 0.1	< 0.0001	< 0.0001	< 0.1	0.00378	< 0.0001	< 0.0001	< 0.1	< 0.0001	< 0.0001	< 0.1
